From patent US20260315452A1, “PROTEASE INHIBITORS AND USES THEREOF” (priority 2023, published 2026)
Counter-ions that a name gives are not always drawn.

Experiments:
SARS-CoV-2 = assay: Anti-SARS-CoV-2 activity in A549 cells expressing the human ACE2 receptor (inhibition of SARS-CoV-2 replication); format: cell-based; settings: for EC50: Severe acute respiratory syndrome coronavirus 2, A549-ACE2, 24 h, read-out: Antiviral Activity (EC50); for antiviral potency in A549 cells in comparison with compound Ref-2: versus Ref-2 (FIG. 7)
SARS-CoV-2 3CLpro = SARS-CoV-2 3CLpro (Severe acute respiratory syndrome coronavirus 2, UniProt P0DTD1); assay: biochemical; settings: inhibition of SARS-CoV-2 3CLpro; 15 nM 3CLpro, 25 μM fluorogenic substrate, 37° C.; read-out: Inhibitory Activity (IC50)

Structure (SMILES) | EC50 (SARS-CoV-2) [nM] | IC50 (SARS-CoV-2 3CLpro) [nM] | antiviral potency in A549 cells in comparison with compound Ref-2 (SARS-CoV-2)
O=C(NCC(F)(F)F)c1cc(Cl)cc([N+](=O)[O-])c1N[C@H]1CN(C(=O)c2cncc3ccccc23)CCC1(F)F [Compound 91, (S)-5-chloro-2-((4,4-difluoro-1-(isoquinoline-4-carbonyl)piperidin-3-yl)amino)-3-nitro-N-(2,2,2-trifluoroethyl) benzamide] | < 100 | < 100 | –
CN(C)C1CN(C(=O)c2cc(Br)cc([N+](=O)[O-])c2N[C@H]2CN(C(=O)c3cncc4ccccc34)CCC2(F)F)C1 [Compound 47] | < 100 | < 100 | –
CNC(=O)c1cc(Br)cc([N+](=O)[O-])c1N[C@@H]1CCN(C(=O)c2cncc3ccccc23)C1 [Compound 64, (R)-5-bromo-2-((1-(isoquinoline-4-carbonyl)pyrrolidin-3-yl)amino)-N-methyl-3-nitrobenzamide] | 100 to 1000 | 100 to 1000 | –
O=C(c1cc(Cl)cc([N+](=O)[O-])c1N[C@H]1CN(C(=O)c2cncc3ccccc23)CCC1(F)F)N1CC(O)C1 [Compound 43, (S)-(5-chloro-2-((4,4-difluoro-1-(isoquinoline-4-carbonyl)piperidin-3-yl)amino)-3-nitrophenyl)(3-hydroxyazetidin-1-yl)methanone] | – | < 100 | better antiviral potency
O=C(NC1CC(F)(F)C1)c1cc(Br)cc([N+](=O)[O-])c1N[C@@H]1CCCN(C(=O)c2cncc3ccccc23)C1 [Compound 34, (R)-5-bromo-N-(3,3-difluorocyclobutyl)-2-((1-(isoquinoline-4-carbonyl)piperidin-3-yl)amino)-3-nitrobenzamide] | < 100 | < 100 | –
O=C(NC1CC(F)(F)C1)c1cc(Cl)cc(C(F)(F)F)c1N[C@H]1CN(C(=O)c2cncc3ccccc23)CCC1(F)F [Compound 82, (S)-5-chloro-2-((4,4-difluoro-1-(isoquinoline-4-carbonyl)piperidin-3-yl)amino)-N-(3,3-difluorocyclobutyl)-3-(trifluoromethyl)benzamide] | < 100 | < 100 | –
CNC(=O)c1cc(Cl)cc([N+](=O)[O-])c1N[C@H]1CN(C(=O)c2cncc3ccccc23)CCC1(F)F [Compound 92, (S)-5-chloro-2-((4,4-difluoro-1-(isoquinoline-4-carbonyl)piperidin-3-yl)amino)-N-methyl-3-nitrobenzamide] | < 100 | < 100 | –
CC(C)(C)NC(=O)c1cc(Br)cc([N+](=O)[O-])c1N[C@@H]1CCCC[C@@H]1NC(=O)c1cncc2ccccc12 [Compound 85, N-((1S, 2R)-2-((4-bromo-2-(tert-butylcarbamoyl)-6-nitrophenyl)amino)cyclohexyl)isoquinoline-4-carboxamide] | 100 to 1000 | 100 to 1000 | –
CN1CC[C@@H](NC(=O)c2cc(Cl)cc([N+](=O)[O-])c2N[C@H]2CN(C(=O)c3cncc4ccccc34)CCC2(F)F)C1 [Compound 93, 5-chloro-2-(((S)-4,4-difluoro-1-(isoquinoline-4-carbonyl)piperidin-3-yl)amino)-N-(1-methylpyrrolidin-3-yl)-3-nitrobenzamide hydrochloride] | < 100 | < 100 | –
CNC(=O)c1cc(Br)cc([N+](=O)[O-])c1NC(C(C)C)C1CN(C(=O)c2cncc3ccccc23)C1 (centres unmarked) [Compound 99, 5-bromo-2-((1-(1-(isoquinoline-4-carbonyl)azetidin-3-yl)-2-methylpropyl)amino)-N-methyl-3-nitrobenzamide] | 100 to 1000 | 100 to 1000 | –
CNC(=O)c1cc(Br)cc([N+](=O)[O-])c1N[C@@H]1COCC[C@@H]1NC(=O)c1cncc2ccccc12 [Compound 132, N-((3S, 4S)-3-((4-bromo-2-(methylcarbamoyl)-6-nitrophenyl)amino)tetrahydro-2H-pyran-4-yl)isoquinoline-4-carboxamide] | < 100 | < 100 | –
CNC(=O)c1cc(Cl)cc(C(F)(F)F)c1N[C@H]1CN(C(=O)c2cncc3ccccc23)CCC1(F)F [Compound 84, (S)-5-chloro-2-((4,4-difluoro-1-(isoquinoline-4-carbonyl)piperidin-3-yl)amino)-N-methyl-3-(trifluoromethyl)benzamide] | < 100 | < 100 | –
CNC(=O)c1cc(Br)cc([N+](=O)[O-])c1N1CCC2(CN(C(=O)c3cncc4ccccc34)CC2(F)F)C1 (centres unmarked) [Compound 129, 5-bromo-2-(9,9-difluoro-7-(isoquinoline-4-carbonyl)-2,7-diazaspiro[4, 4]nonan-2-yl)-N-methyl-3-nitrobenzamide] | 100 to 1000 | 100 to 1000 | –
CNC(=O)c1cc(Br)cc([N+](=O)[O-])c1N[C@@H]1CN(C)CC[C@@H]1NC(=O)c1cncc2ccccc12 [Compound 89, N-((3R,4S)-3-((4-bromo-2-(methylcarbamoyl)-6-nitrophenyl)amino)-1-methylpiperidin-4-yl)isoquinoline-4-carboxamide] | 1000 to 10000 | 1000 to 10000 | –
O=C(NC1CC(F)(F)C1)c1cc(Cl)cc([N+](=O)[O-])c1N[C@H]1CN(C(=O)c2cncc3ccccc23)CCC1(F)F [Compound 158, (S)-5-chloro-2-((4,4-difluoro-1-(isoquinoline-4-carbonyl)piperidin-3-yl)amino)-N-(3,3-difluorocyclobutyl)-3-nitrobenzamide] | < 100 | < 100 | –
O=C(NC1CC(F)(F)C1)c1cc(Br)cc([N+](=O)[O-])c1N[C@@H]1COCC[C@@H]1NC(=O)c1cncc2ccccc12 [Compound 126, N-((3S, 4S)-3-((4-bromo-2-((3,3-difluorocyclobutyl)carbamoyl)-6-nitrophenyl)amino)tetrahydro-2H-pyran-4-yl)isoquinoline-4-carboxamide] | < 100 | < 100 | –
O=C(NC1CC(F)(F)C1)c1cc(Br)cc(C(F)(F)F)c1N[C@@H]1COCC[C@@H]1NC(=O)c1cncc2ccccc12 [Compound 79, N-((3S, 4S)-3-((4-bromo-2-((3,3-difluorocyclobutyl)carbamoyl)-6-(trifluoromethyl)phenyl)amino)tetrahydro-2H-pyran-4-yl)isoquinoline-4-carboxamide] | 100 to 1000 | < 100 | –
CC(C)C(Nc1c(C(=O)NC2CC(F)(F)C2)cc(Br)cc1[N+](=O)[O-])C1CN(C(=O)c2cncc3ccccc23)C1 (centres unmarked) [Compound 116, 5-bromo-N-(3,3-difluorocyclobutyl)-2-((1-(1-(isoquinoline-4-carbonyl)azetidin-3-yl)-2-methylpropyl)amino)-3-nitrobenzamide] | 100 to 1000 | 100 to 1000 | –
O=C(NC1CC(F)(F)C1)c1cc(Cl)cc(C(F)(F)F)c1N[C@@H]1COCC[C@@H]1NC(=O)c1cncc2ccccc12 [Compound 145, N-((3S, 4S)-3-((4-chloro-2-((3,3-difluorocyclobutyl)carbamoyl)-6-(trifluoromethyl)phenyl)amino)tetrahydro-2H-pyran-4-yl)isoquinoline-4-carboxamide] | 100 to 1000 | 100 to 1000 | –
CN(C)C(=O)c1cc(Br)cc([N+](=O)[O-])c1N[C@H]1CN(C(=O)c2cncc3ccccc23)CCC1(F)F [Compound 151, (S)-5-bromo-2-((4,4-difluoro-1-(isoquinoline-4-carbonyl)piperidin-3-yl)amino)-N, N-dimethyl-3-nitrobenzamide] | < 100 | < 100 | better antiviral potency
